Results from the kinase profiling compilation of Christmann-Franck et al. (2016).

Legend:
Experiment in all cases: KINOMEscan competition binding
Conditions in all cases: compound 10.0 µM
SRMS (human) = SRMS (human) (UniProt Q9H3Y6)
STK3 (human) = STK3 (human) (UniProt Q13188)
TYRO3 (human) = TYRO3 (human) (UniProt Q06418)
GAK (human) = GAK (human) (UniProt O14976)
MAP3K7 (human) = MAP3K7 (human) (UniProt O43318)
AURKB (human) = AURKB (human) (UniProt Q96GD4)
ERBB2 (human) = ERBB2 (human) (UniProt P04626)
MAPK13 (human) = MAPK13 (human) (UniProt O15264)
MAPK13 (human), sequence (O15264 whole entry, looked up): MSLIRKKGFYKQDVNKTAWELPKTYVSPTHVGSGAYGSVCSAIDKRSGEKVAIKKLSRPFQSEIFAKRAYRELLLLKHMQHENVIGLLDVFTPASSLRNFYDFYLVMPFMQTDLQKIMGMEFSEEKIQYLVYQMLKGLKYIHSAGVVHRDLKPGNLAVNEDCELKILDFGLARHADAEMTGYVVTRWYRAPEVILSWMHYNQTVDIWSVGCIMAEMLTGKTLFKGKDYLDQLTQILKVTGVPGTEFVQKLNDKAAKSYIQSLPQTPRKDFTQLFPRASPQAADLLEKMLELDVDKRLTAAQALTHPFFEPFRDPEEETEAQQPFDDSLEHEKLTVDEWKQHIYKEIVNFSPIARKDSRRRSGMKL

IRAK1 (human) = IRAK1 (human) (UniProt P51617)
KIT (human) = KIT (human) (UniProt P10721)
KIT (human), sequence (P10721 whole entry, looked up): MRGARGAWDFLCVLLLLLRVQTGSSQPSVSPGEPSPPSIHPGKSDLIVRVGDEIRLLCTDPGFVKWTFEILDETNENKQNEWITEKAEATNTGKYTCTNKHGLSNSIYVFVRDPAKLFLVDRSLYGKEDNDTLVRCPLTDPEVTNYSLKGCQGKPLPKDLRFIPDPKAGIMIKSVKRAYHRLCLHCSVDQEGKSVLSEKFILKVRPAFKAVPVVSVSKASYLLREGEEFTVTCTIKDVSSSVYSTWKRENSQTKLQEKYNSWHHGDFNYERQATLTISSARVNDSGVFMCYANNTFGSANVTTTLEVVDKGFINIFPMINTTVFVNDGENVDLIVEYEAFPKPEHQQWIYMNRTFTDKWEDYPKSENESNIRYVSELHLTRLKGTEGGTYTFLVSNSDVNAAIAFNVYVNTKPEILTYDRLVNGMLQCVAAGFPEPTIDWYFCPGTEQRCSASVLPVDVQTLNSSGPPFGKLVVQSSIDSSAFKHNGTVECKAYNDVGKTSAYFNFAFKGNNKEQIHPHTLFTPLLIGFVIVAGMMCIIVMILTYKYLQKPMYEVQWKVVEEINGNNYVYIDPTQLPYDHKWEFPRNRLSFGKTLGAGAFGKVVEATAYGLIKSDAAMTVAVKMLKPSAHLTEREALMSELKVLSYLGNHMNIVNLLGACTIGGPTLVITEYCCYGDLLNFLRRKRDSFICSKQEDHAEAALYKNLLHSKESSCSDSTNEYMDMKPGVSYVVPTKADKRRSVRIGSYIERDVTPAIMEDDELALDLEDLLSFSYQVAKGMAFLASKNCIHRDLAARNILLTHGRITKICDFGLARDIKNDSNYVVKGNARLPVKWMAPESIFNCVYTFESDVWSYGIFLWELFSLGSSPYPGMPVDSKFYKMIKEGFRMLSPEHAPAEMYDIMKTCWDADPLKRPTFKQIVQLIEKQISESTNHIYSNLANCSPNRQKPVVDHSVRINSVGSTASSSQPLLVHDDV

[1] = molecular target: TYK2 JH2 pseudokinase (human) (UniProt P29597)
TYK2 JH2 pseudokinase (human), sequence (P29597 whole entry, looked up): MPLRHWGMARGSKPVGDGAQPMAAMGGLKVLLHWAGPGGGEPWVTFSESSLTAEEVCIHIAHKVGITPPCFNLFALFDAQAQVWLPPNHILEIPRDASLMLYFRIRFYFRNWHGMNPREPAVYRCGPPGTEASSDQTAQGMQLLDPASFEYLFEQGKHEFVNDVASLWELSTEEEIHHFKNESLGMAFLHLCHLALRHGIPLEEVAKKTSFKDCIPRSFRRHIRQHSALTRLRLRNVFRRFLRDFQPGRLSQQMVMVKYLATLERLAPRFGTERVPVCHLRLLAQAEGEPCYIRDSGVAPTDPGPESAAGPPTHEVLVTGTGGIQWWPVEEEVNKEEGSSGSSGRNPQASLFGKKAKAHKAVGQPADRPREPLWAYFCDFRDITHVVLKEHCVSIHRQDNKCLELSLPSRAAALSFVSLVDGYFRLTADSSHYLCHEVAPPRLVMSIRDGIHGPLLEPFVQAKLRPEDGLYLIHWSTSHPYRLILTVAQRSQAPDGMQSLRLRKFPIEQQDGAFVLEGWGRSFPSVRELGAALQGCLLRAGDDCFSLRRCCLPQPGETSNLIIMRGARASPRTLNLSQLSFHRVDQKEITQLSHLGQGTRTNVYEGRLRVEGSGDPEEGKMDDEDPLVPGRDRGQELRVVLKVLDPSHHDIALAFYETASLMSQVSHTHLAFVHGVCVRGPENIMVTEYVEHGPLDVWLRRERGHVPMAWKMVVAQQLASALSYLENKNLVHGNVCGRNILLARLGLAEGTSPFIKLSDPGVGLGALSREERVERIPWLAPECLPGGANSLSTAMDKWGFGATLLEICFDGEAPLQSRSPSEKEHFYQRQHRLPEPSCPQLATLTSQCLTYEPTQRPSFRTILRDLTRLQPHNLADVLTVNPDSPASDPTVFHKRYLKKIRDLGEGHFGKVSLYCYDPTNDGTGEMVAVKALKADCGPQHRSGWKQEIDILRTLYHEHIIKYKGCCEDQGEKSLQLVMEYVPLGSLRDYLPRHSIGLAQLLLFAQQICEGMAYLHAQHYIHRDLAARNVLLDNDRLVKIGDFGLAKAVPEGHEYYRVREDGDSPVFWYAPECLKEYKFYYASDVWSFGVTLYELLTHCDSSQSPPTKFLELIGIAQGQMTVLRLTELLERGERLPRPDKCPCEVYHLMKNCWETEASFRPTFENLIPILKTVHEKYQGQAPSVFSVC

MARK2 (human) = MARK2 (human) (UniProt Q7KZI7)
PAK7 (human) = PAK7 (human) (UniProt Q9P286)
CLK2 (human) = CLK2 (human) (UniProt P49760)
PDPK1 (human) = PDPK1 (human) (UniProt O15530)
PDPK1 (human), sequence (O15530 whole entry, looked up): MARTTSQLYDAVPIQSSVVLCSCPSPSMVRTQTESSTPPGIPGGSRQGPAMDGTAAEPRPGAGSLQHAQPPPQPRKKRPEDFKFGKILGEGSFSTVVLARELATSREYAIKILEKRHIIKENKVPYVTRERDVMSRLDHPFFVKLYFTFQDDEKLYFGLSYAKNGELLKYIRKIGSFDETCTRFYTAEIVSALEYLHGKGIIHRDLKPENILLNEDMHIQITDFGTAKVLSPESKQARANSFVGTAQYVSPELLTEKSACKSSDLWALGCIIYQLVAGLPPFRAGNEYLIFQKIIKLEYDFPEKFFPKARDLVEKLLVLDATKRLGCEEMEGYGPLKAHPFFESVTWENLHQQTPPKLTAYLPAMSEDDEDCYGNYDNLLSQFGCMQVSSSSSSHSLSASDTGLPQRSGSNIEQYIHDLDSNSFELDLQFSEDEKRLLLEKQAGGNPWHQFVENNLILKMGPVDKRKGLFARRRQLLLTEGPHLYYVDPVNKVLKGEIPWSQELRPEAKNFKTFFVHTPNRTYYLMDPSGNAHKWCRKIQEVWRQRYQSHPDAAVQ

HCK (human) = HCK (human) (UniProt P08631)
TLK2 (human) = TLK2 (human) (UniProt Q86UE8)
ADCK3 (human) = ADCK3 (human) (UniProt Q8NI60)
[2] = test system: KIT (human), P10721 [L576P]
KIT (human), P10721 [L576P], sequence (P10721 whole entry L576P, looked up): as the sequence (P10721 whole entry, looked up) above, with L576P counted along it

PIK3CB (human) = PIK3CB (human) (UniProt P42338)
LIMK2 (human) = LIMK2 (human) (UniProt P53671)
RIPK2 (human) = RIPK2 (human) (UniProt O43353)
PRPF4B (human) = PRPF4B (human) (UniProt Q13523)
MAPK12 (human) = MAPK12 (human) (UniProt P53778)
ACVR1 (human) = ACVR1 (human) (UniProt Q04771)
TGFBR1 (human) = TGFBR1 (human) (UniProt P36897)
TIE1 (human) = TIE1 (human) (UniProt P35590)
MINK1 (human) = MINK1 (human) (UniProt Q8N4C8)
HIPK4 (human) = HIPK4 (human) (UniProt Q8NE63)
RPS6KA5 KD1 (human) = RPS6KA5 KD1 (human) (UniProt O75582)
DYRK1A (human) = DYRK1A (human) (UniProt Q13627)
STK10 (human) = STK10 (human) (UniProt O94804)
STK10 (human), sequence (O94804 whole entry, looked up): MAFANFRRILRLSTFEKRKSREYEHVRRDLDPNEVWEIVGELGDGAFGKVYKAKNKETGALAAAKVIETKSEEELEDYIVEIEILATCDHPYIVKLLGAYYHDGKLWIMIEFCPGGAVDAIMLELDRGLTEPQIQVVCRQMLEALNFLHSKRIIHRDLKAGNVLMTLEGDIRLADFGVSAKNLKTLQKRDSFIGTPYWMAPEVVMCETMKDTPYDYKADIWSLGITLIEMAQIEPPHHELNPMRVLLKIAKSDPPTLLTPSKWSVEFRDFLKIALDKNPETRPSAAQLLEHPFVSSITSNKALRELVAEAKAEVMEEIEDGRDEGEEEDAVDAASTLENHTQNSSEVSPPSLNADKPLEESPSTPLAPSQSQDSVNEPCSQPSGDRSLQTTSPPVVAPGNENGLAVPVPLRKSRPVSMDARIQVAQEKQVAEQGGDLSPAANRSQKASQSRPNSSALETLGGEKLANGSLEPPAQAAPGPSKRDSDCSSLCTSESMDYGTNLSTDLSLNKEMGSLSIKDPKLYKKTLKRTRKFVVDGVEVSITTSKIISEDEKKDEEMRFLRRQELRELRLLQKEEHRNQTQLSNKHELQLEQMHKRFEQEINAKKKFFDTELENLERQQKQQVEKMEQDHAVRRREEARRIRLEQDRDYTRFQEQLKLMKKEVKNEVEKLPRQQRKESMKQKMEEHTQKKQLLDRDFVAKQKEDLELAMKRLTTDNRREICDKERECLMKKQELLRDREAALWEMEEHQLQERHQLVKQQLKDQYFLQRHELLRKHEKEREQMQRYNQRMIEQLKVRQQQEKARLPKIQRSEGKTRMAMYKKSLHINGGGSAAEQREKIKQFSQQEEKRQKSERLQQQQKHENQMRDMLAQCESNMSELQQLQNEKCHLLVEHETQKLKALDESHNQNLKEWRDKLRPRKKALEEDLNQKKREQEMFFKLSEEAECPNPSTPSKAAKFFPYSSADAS

[3] = test system: MET (human), P08581 [Y1235D]
MAPK14 (human) = MAPK14 (human) (UniProt Q16539)
OXSR1 (human) = OXSR1 (human) (UniProt O95747)
RIOK3 (human) = RIOK3 (human) (UniProt O14730)
STK35 (human) = STK35 (human) (UniProt Q8TDR2)
[4] = test system: FLT3 (human), P36888 [R834Q]
DSTYK (human) = DSTYK (human) (UniProt Q6XUX3)
MTOR (human) = MTOR (human) (UniProt P42345)

TYRO3 (human), sequence (Q06418 whole entry, looked up): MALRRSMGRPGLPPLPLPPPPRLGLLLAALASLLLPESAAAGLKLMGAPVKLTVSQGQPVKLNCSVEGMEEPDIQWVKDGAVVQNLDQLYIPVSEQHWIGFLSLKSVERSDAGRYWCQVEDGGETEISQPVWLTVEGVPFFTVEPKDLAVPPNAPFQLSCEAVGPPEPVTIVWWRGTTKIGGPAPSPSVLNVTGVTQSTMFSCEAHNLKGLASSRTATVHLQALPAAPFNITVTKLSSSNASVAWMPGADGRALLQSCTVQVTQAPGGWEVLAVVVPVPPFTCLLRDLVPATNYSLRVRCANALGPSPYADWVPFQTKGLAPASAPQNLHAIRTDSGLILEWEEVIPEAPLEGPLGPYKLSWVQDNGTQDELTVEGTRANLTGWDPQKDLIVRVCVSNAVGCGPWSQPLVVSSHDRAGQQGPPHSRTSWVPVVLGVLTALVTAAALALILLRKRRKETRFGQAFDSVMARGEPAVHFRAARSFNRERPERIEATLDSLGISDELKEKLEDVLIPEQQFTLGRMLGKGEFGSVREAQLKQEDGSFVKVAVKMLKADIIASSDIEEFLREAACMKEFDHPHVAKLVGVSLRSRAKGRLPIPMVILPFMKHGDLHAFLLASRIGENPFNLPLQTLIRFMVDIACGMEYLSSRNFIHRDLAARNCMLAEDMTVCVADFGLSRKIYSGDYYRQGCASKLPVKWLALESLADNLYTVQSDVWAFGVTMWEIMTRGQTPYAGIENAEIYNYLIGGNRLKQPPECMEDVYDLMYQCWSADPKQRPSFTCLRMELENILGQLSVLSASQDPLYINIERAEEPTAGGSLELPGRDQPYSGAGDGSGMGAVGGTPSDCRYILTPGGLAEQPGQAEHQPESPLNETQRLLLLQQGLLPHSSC

Structure (SMILES) | kinase still bound, per cent of control (STK3 (human)) [%] | kinase still bound, per cent of control (GAK (human)) [%] | kinase still bound, per cent of control (MAP3K7 (human)) [%] | kinase still bound, per cent of control (MAPK13 (human)) [%] | kinase still bound, per cent of control (IRAK1 (human)) [%] | kinase still bound, per cent of control (KIT (human)) [%] | kinase still bound, per cent of control [1] [%] | kinase still bound, per cent of control (MARK2 (human)) [%] | kinase still bound, per cent of control (PAK7 (human)) [%] | kinase still bound, per cent of control (CLK2 (human)) [%] | kinase still bound, per cent of control (PDPK1 (human)) [%] | kinase still bound, per cent of control (TLK2 (human)) [%] | kinase still bound, per cent of control (ADCK3 (human)) [%] | kinase still bound, per cent of control [2] [%] | kinase still bound, per cent of control (PIK3CB (human)) [%] | kinase still bound, per cent of control (LIMK2 (human)) [%] | kinase still bound, per cent of control (RIPK2 (human)) [%] | kinase still bound, per cent of control (PRPF4B (human)) [%] | kinase still bound, per cent of control (ACVR1 (human)) [%] | kinase still bound, per cent of control (TGFBR1 (human)) [%] | also measured
COc1cc(N2CCN(C)CC2)ccc1Nc1ncc2c(n1)N(C)c1ccccc1C(=O)N2C | 100 | 9.8 | 100 | 100 | 100 | 100 | 100 | 100 | 100 | 100 | 100 | 100 | 100 | 100 | 100 | 100 | 100 | 100 | 100 | 100 | kinase still bound, per cent of control (SRMS (human)): 100%; kinase still bound, per cent of control (TYRO3 (human)): 100%; kinase still bound, per cent of control (AURKB (human)): 100%; kinase still bound, per cent of control (ERBB2 (human)): 100%; kinase still bound, per cent of control (HCK (human)): 100%; kinase still bound, per cent of control (MAPK12 (human)): 100%; kinase still bound, per cent of control (TIE1 (human)): 100%; kinase still bound, per cent of control (MINK1 (human)): 100%; kinase still bound, per cent of control (HIPK4 (human)): 100%; kinase still bound, per cent of control (RPS6KA5 KD1 (human)): 100%; kinase still bound, per cent of control (DYRK1A (human)): 100%; kinase still bound, per cent of control (STK10 (human)): 100%; kinase still bound, per cent of control [3]: 100%; kinase still bound, per cent of control (MAPK14 (human)): 100%; kinase still bound, per cent of control (OXSR1 (human)): 100%; kinase still bound, per cent of control (RIOK3 (human)): 100%; kinase still bound, per cent of control (STK35 (human)): 100%
C[C@@H](Oc1cc(-c2cnn(C3CCNCC3)c2)cnc1N)c1c(Cl)ccc(F)c1Cl | 0 | 79 | 8.2 | 100 | 0 | 43 | 2.3 | 20 | 49 | 68 | 100 | 100 | 53 | 43 | 99 | 4.6 | 11 | 48 | 0.6 | 4 | kinase still bound, per cent of control (SRMS (human)): 54%; kinase still bound, per cent of control [4]: 25%; kinase still bound, per cent of control (DSTYK (human)): 1.6%; kinase still bound, per cent of control (MTOR (human)): 100%; kinase still bound, per cent of control (MINK1 (human)): 18%; kinase still bound, per cent of control (HIPK4 (human)): 15%; kinase still bound, per cent of control (RPS6KA5 KD1 (human)): 100%; kinase still bound, per cent of control (DYRK1A (human)): 100%; kinase still bound, per cent of control (STK10 (human)): 0%; kinase still bound, per cent of control (MAPK14 (human)): 100%; kinase still bound, per cent of control (RIOK3 (human)): 3.4%
CCN(CC)CCCCNc1ncc2c(n1)N(C)C(=O)N(c1c(Cl)c(OC)cc(OC)c1Cl)C2 | 100 | 100 | 100 | 100 | 100 | 6.7 | 100 | 100 | 100 | 100 | 100 | 100 | 100 | 2.3 | 100 | 100 | 100 | 100 | 100 | 100 | kinase still bound, per cent of control (SRMS (human)): 100%; kinase still bound, per cent of control (TYRO3 (human)): 100%; kinase still bound, per cent of control (AURKB (human)): 100%; kinase still bound, per cent of control (ERBB2 (human)): 100%; kinase still bound, per cent of control (HCK (human)): 100%; kinase still bound, per cent of control (MAPK12 (human)): 100%; kinase still bound, per cent of control (TIE1 (human)): 10%; kinase still bound, per cent of control (MINK1 (human)): 100%; kinase still bound, per cent of control (HIPK4 (human)): 100%; kinase still bound, per cent of control (RPS6KA5 KD1 (human)): 100%; kinase still bound, per cent of control (DYRK1A (human)): 100%; kinase still bound, per cent of control (STK10 (human)): 100%; kinase still bound, per cent of control [3]: 100%; kinase still bound, per cent of control (MAPK14 (human)): 100%; kinase still bound, per cent of control (OXSR1 (human)): 100%; kinase still bound, per cent of control (RIOK3 (human)): 100%; kinase still bound, per cent of control (STK35 (human)): 100%
CNC(=O)c1cc(Oc2ccc(NC(=O)Nc3ccc(Cl)c(C(F)(F)F)c3)cc2)ccn1 | 85 | 80 | 6.2 | 7.6 | 70 | 0 | 100 | 98 | 100 | 55 | 76 | 91 | 100 | 0 | 100 | 57 | 18 | 100 | 100 | 100 | kinase still bound, per cent of control (TYRO3 (human)): 80%; kinase still bound, per cent of control (ERBB2 (human)): 100%; kinase still bound, per cent of control [4]: 50%; kinase still bound, per cent of control (DSTYK (human)): 100%; kinase still bound, per cent of control (HCK (human)): 27%; kinase still bound, per cent of control (MTOR (human)): 80%; kinase still bound, per cent of control (MINK1 (human)): 46%; kinase still bound, per cent of control (RPS6KA5 KD1 (human)): 100%; kinase still bound, per cent of control (DYRK1A (human)): 100%; kinase still bound, per cent of control (STK10 (human)): 0%; kinase still bound, per cent of control [3]: 70%; kinase still bound, per cent of control (MAPK14 (human)): 0.2%; kinase still bound, per cent of control (OXSR1 (human)): 100%; kinase still bound, per cent of control (RIOK3 (human)): 100%; kinase still bound, per cent of control (STK35 (human)): 34%
